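Briefly, cells in 96-well plates were exposed to five compound concentrations for 48 h, and endpoints were estimated by linear interpolation. TGI: total growth inhibition.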
Assays:
Experiment in all cases: NCI tumour cell line growth inhibition, 48 h
HT29 colon = tested on: HT29 colon
HCT-15 colon = tested on: HCT-15 colon
MALME-3M melanoma = tested on: MALME-3M melanoma
SNB-19 CNS = tested on: SNB-19 CNS
NCI-H460 lung = tested on: NCI-H460 lung
HL-60(TB) leukemia = tested on: HL-60(TB) leukemia
SK-MEL-2 melanoma = tested on: SK-MEL-2 melanoma
NCI-H226 lung = tested on: NCI-H226 lung
A498 renal = tested on: A498 renal
HCT-116 colon = tested on: HCT-116 colon
KM12 colon = tested on: KM12 colon
ACHN renal = tested on: ACHN renal
SW-620 colon = tested on: SW-620 colon
SR leukemia = tested on: SR leukemia
HOP-92 NSCLC = tested on: HOP-92 NSCLC
SK-MEL-28 melanoma = tested on: SK-MEL-28 melanoma
HOP-62 NSCLC = tested on: HOP-62 NSCLC
SF-539 CNS = tested on: SF-539 CNS
SK-MEL-5 melanoma = tested on: SK-MEL-5 melanoma
K-562 leukemia = tested on: K-562 leukemia
KM20L2 colon = tested on: KM20L2 colon
U251 CNS = tested on: U251 CNS
M14 melanoma = tested on: M14 melanoma
SN12C renal = tested on: SN12C renal
RXF 393 renal = tested on: RXF 393 renal
TK-10 renal = tested on: TK-10 renal
SF-295 CNS = tested on: SF-295 CNS
DMS 114 small cell lung = tested on: DMS 114 small cell lung
COLO 205 colon = tested on: COLO 205 colon
SF-268 CNS = tested on: SF-268 CNS
SK-OV-3 ovarian = tested on: SK-OV-3 ovarian
786-0 renal = tested on: 786-0 renal
NCI-H522 lung = tested on: NCI-H522 lung
CCRF-CEM leukemia = tested on: CCRF-CEM leukemia
OVCAR-5 ovarian = tested on: OVCAR-5 ovarian
CAKI-1 renal = tested on: CAKI-1 renal
MOLT-4 leukemia = tested on: MOLT-4 leukemia
LXFL 529 NSCLC = tested on: LXFL 529 NSCLC
DLD-1 colon = tested on: DLD-1 colon
M19-MEL melanoma = tested on: M19-MEL melanoma
UO-31 renal = tested on: UO-31 renal
DMS 273 small cell lung = tested on: DMS 273 small cell lung
UACC-62 melanoma = tested on: UACC-62 melanoma
LOX IMVI melanoma = tested on: LOX IMVI melanoma
HOP-18 NSCLC = tested on: HOP-18 NSCLC
SNB-75 CNS = tested on: SNB-75 CNS
RPMI-8226 leukemia = tested on: RPMI-8226 leukemia
A549 NSCLC = tested on: A549 NSCLC
HCC-2998 colon = tested on: HCC-2998 colon
OVCAR-4 ovarian = tested on: OVCAR-4 ovarian
UACC-257 melanoma = tested on: UACC-257 melanoma
SNB-78 CNS = tested on: SNB-78 CNS
IGROV1 ovarian = tested on: IGROV1 ovarian
NCI-H23 lung = tested on: NCI-H23 lung
OVCAR-3 ovarian = tested on: OVCAR-3 ovarian

CCNC(=O)COc1ccc(Cl)c(C)c1
TGI (HT29 colon): > 100 µM | TGI (HCT-15 colon): > 100 µM | TGI (MALME-3M melanoma): > 100 µM | TGI (SNB-19 CNS): > 100 µM | TGI (NCI-H460 lung): > 100 µM | TGI (HL-60(TB) leukemia): > 100 µM | TGI (SK-MEL-2 melanoma): > 100 µM | TGI (NCI-H226 lung): > 100 µM | TGI (A498 renal): > 100 µM | TGI (HCT-116 colon): > 100 µM | TGI (KM12 colon): > 100 µM | TGI (ACHN renal): > 100 µM | TGI (SW-620 colon): > 100 µM | TGI (SR leukemia): > 100 µM | TGI (HOP-92 NSCLC): > 100 µM | TGI (SK-MEL-28 melanoma): > 100 µM | TGI (HOP-62 NSCLC): > 100 µM | TGI (SF-539 CNS): > 100 µM | TGI (SK-MEL-5 melanoma): > 100 µM | TGI (K-562 leukemia): > 100 µM | TGI (KM20L2 colon): > 100 µM | TGI (U251 CNS): > 100 µM | TGI (M14 melanoma): > 100 µM | TGI (SN12C renal): > 100 µM | TGI (RXF 393 renal): > 100 µM | TGI (TK-10 renal): > 100 µM | TGI (SF-295 CNS): > 100 µM | TGI (DMS 114 small cell lung): > 100 µM | TGI (COLO 205 colon): > 100 µM | TGI (SF-268 CNS): > 100 µM | TGI (SK-OV-3 ovarian): > 100 µM | TGI (786-0 renal): > 100 µM | TGI (NCI-H522 lung): > 100 µM | TGI (CCRF-CEM leukemia): > 100 µM | TGI (OVCAR-5 ovarian): > 100 µM | TGI (CAKI-1 renal): > 100 µM | TGI (MOLT-4 leukemia): > 100 µM | TGI (LXFL 529 NSCLC): > 100 µM | TGI (DLD-1 colon): > 100 µM | TGI (M19-MEL melanoma): > 100 µM | TGI (UO-31 renal): > 100 µM | TGI (DMS 273 small cell lung): > 100 µM | TGI (UACC-62 melanoma): > 100 µM | TGI (LOX IMVI melanoma): > 100 µM | TGI (HOP-18 NSCLC): > 100 µM | TGI (SNB-75 CNS): > 100 µM | TGI (RPMI-8226 leukemia): > 100 µM | TGI (A549 NSCLC): > 100 µM | TGI (HCC-2998 colon): > 100 µM | TGI (OVCAR-4 ovarian): > 100 µM | TGI (UACC-257 melanoma): > 100 µM | TGI (SNB-78 CNS): > 100 µM | TGI (IGROV1 ovarian): > 100 µM | TGI (NCI-H23 lung): > 100 µM | TGI (OVCAR-3 ovarian): > 100 µM

COC1CCC(CO)OO1 (stereo unspecified)
TGI (HT29 colon): > 100 µM | TGI (MALME-3M melanoma): > 100 µM | TGI (SNB-19 CNS): > 100 µM | TGI (NCI-H460 lung): > 100 µM | TGI (HL-60(TB) leukemia): 58 µM | TGI (SK-MEL-2 melanoma): > 100 µM | TGI (A498 renal): 72.2 µM | TGI (HCT-116 colon): > 100 µM | TGI (KM12 colon): > 100 µM | TGI (ACHN renal): > 100 µM | TGI (SR leukemia): > 100 µM | TGI (HOP-92 NSCLC): > 100 µM | TGI (SK-MEL-28 melanoma): > 100 µM | TGI (HOP-62 NSCLC): > 100 µM | TGI (SF-539 CNS): > 100 µM | TGI (K-562 leukemia): > 100 µM | TGI (KM20L2 colon): > 100 µM | TGI (U251 CNS): > 100 µM | TGI (M14 melanoma): > 100 µM | TGI (RXF 393 renal): > 100 µM | TGI (SF-295 CNS): 73.6 µM | TGI (DMS 114 small cell lung): 36.6 µM | TGI (COLO 205 colon): > 100 µM | TGI (SF-268 CNS): > 100 µM | TGI (SK-OV-3 ovarian): > 100 µM | TGI (NCI-H522 lung): 27.4 µM | TGI (CCRF-CEM leukemia): > 100 µM | TGI (OVCAR-5 ovarian): > 100 µM | TGI (MOLT-4 leukemia): > 100 µM | TGI (LXFL 529 NSCLC): > 100 µM | TGI (M19-MEL melanoma): > 100 µM | TGI (UO-31 renal): > 100 µM | TGI (UACC-62 melanoma): > 100 µM | TGI (SNB-75 CNS): > 100 µM | TGI (RPMI-8226 leukemia): 93.1 µM | TGI (OVCAR-4 ovarian): > 100 µM | TGI (UACC-257 melanoma): > 100 µM | TGI (SNB-78 CNS): 66.9 µM | TGI (IGROV1 ovarian): 75.8 µM | TGI (NCI-H23 lung): > 100 µM | TGI (OVCAR-3 ovarian): 80.5 µM

Reference: PubChem BioAssay (NCI)
